Assay [1] addresses T1, Solute carrier family 15 member 1 (Homo sapiens) (UniProt P46059).
T1 sequence (whole entry): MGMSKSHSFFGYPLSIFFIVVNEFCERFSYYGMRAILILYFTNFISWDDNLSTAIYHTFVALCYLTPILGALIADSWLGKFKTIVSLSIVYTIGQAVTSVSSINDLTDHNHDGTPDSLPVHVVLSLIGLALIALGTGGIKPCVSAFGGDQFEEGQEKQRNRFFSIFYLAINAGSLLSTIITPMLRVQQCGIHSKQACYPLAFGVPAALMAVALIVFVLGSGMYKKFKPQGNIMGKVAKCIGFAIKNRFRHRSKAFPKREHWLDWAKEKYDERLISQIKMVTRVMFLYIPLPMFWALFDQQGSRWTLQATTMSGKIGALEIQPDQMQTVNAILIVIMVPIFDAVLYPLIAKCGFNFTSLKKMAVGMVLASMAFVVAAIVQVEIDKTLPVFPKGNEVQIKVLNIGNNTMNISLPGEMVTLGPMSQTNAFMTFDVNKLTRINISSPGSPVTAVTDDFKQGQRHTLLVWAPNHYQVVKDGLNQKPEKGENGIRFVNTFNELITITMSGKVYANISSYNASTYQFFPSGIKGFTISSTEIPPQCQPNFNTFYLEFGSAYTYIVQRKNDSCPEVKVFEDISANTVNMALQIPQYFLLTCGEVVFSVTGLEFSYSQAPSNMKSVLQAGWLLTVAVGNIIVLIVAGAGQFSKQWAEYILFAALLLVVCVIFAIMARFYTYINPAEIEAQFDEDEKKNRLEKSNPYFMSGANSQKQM
Nature of the assay: (§1) Binding affinity to PEPT1 in human Caco2 cells assessed as inhibition of [14C]Gly-Sar apical uptake after 5 mins by liquid scintillation counting. It counts as cell-based. To be noted: Caco-2.

The target of assay [2] is T2, Solute carrier family 15 member 1 (Homo sapiens, UniProt P46059).
T2 sequence (P46059 whole entry): T1 sequence (whole entry)
The assay is described as §1. In kind it is cell-based, Caco-2.

Non-standard residues stand in square brackets, D forms with d. Residues, ends and D or L forms follow the SMILES beside them. *: point of attachment. 1Nal = N[C@@H](Cc1cccc2ccccc12)C(=O)O; Chg = N[C@H](C(=O)O)C1CCCCC1; Nva = CCC[C@H](N)C(=O)O; Bz = O=C(c1ccccc1)*

Usually Ki stands for a measure of affinity in units of concentration, obtained from inhibition or displacement. As for `C[C@H](NC(=O)[C@H](COC(=O)c1ccccc1)CC(=O)[C@@H](N)Cc1ccccc1)C(=O)O`, the inhibition entry in assay [1] was “Dose-dependent effect”. Moreover, the Ki in assay [2] was 324 µM.

On to `CCC[C@H](NC(=O)[C@H](COC(=O)c1ccccc1)CC(=O)[C@@H](N)Cc1ccccc1)C(=O)O`, for which, in assay [1], the inhibition entry was “Dose-dependent effect”. In addition, the Ki in assay [2] is 251 µM. Take `N[C@@H](Cc1ccccc1)C(=O)C[C@@H](COC(=O)c1ccccc1)C(=O)N[C@H](C(=O)O)C1CCCCC1`: the inhibition entry in assay [1] is “Dose-dependent effect”. `N[C@@H](Cc1ccccc1)C(=O)N[C@@H](COC(=O)c1ccccc1)C(=O)N[C@@H](Cc1cccc2ccccc12)C(=O)O` (H-Phe-Ser(Bz)-[1Nal]-OH): the inhibition result in assay [1] is “Dose-dependent effect”. Same read-out and setting: as for `N[C@@H](Cc1ccccc1)C(=O)N[C@@H](COC(=O)c1ccccc1)C(=O)N[C@H](C(=O)O)C1CCCCC1` (H-Phe-Ser(Bz)-[Chg]-OH), the entry is “Dose-dependent effect”; as for `CCC[C@H](NC(=O)[C@H](COC(=O)c1ccccc1)NC(=O)[C@@H](N)Cc1ccccc1)C(=O)O` (H-Phe-Ser(Bz)-[Nva]-OH), “Dose-dependent effect”. Regarding `C[C@H](NC(=O)[C@H](CO)NC(=O)[C@@H](N)Cc1ccccc1)C(=O)O` (H-Phe-Ser-Ala-OH), the inhibition result in assay [1] is “Dose-dependent effect”. Besides, in assay [2], the inhibition constant (Ki) was 257 µM.

Source of the values: ChEMBL document CHEMBL1806491, “The tandem chain extension aldol reaction used for synthesis of ketomethylene tripeptidomimetics targeting hPEPT1” (Bioorg Med Chem Lett, 2011).
